Assay results taken from patent US6093732A, “4-hydroxyquinoline-3-carboxamides and hydrazides as antiviral agents” (Pharmacia & Upjohn Company, priority 1998, dated 2000).
Where a name gives a salt, the structure may show the parent alone.

target: T1, HCMV polymerase (Human cytomegalovirus, UniProt P08546); test: HCMV polymerase scintillation proximity assay (SPA), modified version; assay type: biochemical; settings: CMV polymerase; Table 1; modified assay with 4.5 mM DTT, compounds in 100% DMSO; read-out: Antiviral Selective Polymerase IC50 Values, CMV
T1 construct: made in house; host or cells: recombinant baculovirus-infected SF-9 cells
T1 sequence (P08546 whole entry): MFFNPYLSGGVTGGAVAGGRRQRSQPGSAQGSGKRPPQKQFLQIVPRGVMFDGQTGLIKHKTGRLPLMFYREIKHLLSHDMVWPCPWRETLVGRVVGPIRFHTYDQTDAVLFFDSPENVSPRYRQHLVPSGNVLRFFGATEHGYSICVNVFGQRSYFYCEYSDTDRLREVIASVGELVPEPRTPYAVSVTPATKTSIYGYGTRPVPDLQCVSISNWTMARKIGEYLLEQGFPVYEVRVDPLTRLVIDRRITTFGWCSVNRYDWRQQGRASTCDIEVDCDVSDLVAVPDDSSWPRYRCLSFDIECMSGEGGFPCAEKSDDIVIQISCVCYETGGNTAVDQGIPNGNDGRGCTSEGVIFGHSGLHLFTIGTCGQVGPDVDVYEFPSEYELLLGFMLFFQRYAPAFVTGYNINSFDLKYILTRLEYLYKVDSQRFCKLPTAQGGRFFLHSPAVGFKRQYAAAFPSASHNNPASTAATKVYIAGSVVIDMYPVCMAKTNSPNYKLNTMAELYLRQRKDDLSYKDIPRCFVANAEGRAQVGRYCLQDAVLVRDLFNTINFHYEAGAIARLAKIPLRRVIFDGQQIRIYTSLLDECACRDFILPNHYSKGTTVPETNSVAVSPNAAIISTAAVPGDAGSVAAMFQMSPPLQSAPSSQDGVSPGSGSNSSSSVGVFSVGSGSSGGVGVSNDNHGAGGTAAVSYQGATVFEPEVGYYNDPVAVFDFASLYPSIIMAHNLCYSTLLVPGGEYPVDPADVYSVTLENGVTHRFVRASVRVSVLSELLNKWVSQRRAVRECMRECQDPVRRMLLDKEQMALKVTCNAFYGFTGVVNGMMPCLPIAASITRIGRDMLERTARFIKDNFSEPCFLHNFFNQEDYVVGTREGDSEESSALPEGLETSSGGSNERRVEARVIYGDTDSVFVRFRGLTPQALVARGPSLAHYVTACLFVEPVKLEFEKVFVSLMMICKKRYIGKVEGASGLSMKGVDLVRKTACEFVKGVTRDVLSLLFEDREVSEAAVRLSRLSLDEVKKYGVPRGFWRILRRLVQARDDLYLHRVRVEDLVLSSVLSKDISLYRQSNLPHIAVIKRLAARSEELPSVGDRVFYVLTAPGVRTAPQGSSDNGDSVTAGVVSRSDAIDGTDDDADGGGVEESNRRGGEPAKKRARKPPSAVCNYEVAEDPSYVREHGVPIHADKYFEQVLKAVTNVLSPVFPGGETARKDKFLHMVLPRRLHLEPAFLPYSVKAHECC
How it was run: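 Recombinant polymerase (baculovirus/SF-9) in 5.4 mM HEPES pH 7.5, 11.7 mM KCl, 4.5 mM MgCl2, 0.36 mg/ml BSA, 90 nM 3H-dTTP, ±2 mM CHAPS; started with 6 nM biotinylated poly(dA)-oligo(dT), 25° C or 37° C, EDTA-stopped in linear range (30 min for HCMV). Streptavidin-SPA read; IC50 by linear regression. Modified version: 100% DMSO compound dilution, 4.5 mM DTT added.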

Row | Structure (SMILES) | IC50 [µM]
1 | CC(C)(C)OC(=O)NCCCCC(NC(=O)OC(C)(C)C)C(=O)OCCCc1cc(F)c2ncc(C(=O)NCc3ccc(Cl)cc3)c(O)c2c1 (centres unmarked) [Example 155, 3-(3{[(4-Chlorobenzyl)amino]carbonyl}-8-fluoro-4-hydroxy-6-quinolinyl)propyl 2,6-bis[(tert-butoxycarbonyl)amino]hexanoate] | ≥ 50
2 | NCCCCC(N)C(=O)OCCCc1cc(F)c2ncc(C(=O)NCc3ccc(Cl)cc3)c(O)c2c1 (centres unmarked) [Example 156, 3-(3-{[(4-Chlorobenzyl)amino]carbonyl}-8-fluoro-4-hydroxy-6-quinolinyl)propyl 2,6-diaminohexanoate, trifluoroacetic acid salt] | 15.9
3 | O=C(NCc1ccc(Cl)cc1)c1cnc2c(F)cc(CN3CCOCC3)cc2c1O [Example 158, N-(4-Chlorobenzyl)-8-fluoro-4-hydroxy-6-(4-morpholinylmethyl)-3-quinolinecarboxamide] | < 0.78
4 | O=C(Nc1ccccc1)OCCCc1cc(F)c2ncc(C(=O)NCc3ccc(Cl)cc3)c(O)c2c1 [Example 159, 3-(3-{[(4-Chlorobenzyl)amino]carbonyl}-8-fluoro-4-hydroxy-6-quinolinyl)propyl phenylcarbamate] | 5
5 | NCCSc1cc(F)c2ncc(C(=O)NCc3ccc(Cl)cc3)c(O)c2c1 [Example 172, 6-[(2-Aminoethyl)sulfanyl]-N-(4-chlorobenzyl)-8-fluoro-4-hydroxy-3-quinolinecarboxamide, hydrobromide] | 35.1
6 | COCCOCSc1cc(F)c2ncc(C(=O)NCc3ccc(Cl)cc3)c(O)c2c1 [Example 173, N-(4-Chlorobenzyl)-8-fluoro-4-hydroxy-6-{[(2-methoxyethoxy)-methyl]sulfanyl}-3-quinolinecarboxamide] | 12.8
7 | O=C(NCc1ccc(Cl)cc1)c1cnc2c(F)cc(SCCN3CCOCC3)cc2c1O [Example 174] | 28.9
8 | C[S+]([O-])c1cc(F)c2ncc(C(=O)NCc3ccc(Cl)cc3)c(O)c2c1 (centres unmarked) [Example 175, N-(4-Chlorobenzyl)-8-fluoro-4-hydroxy-6-(methylsulfinyl)-3-quinolinecarboxamide] | 7.2
9 | CS(=O)(=O)c1cc(F)c2ncc(C(=O)NCc3ccc(Cl)cc3)c(O)c2c1 [Example 176, N-(4-Chlorobenzyl)-8-fluoro-4-hydroxy-6-(methylsulfonyl)-3-quinolinecarboxamide] | 11.4
10 | O=C(NCc1ccc(Cl)cc1)c1cnc2c(F)cc(C(=O)N3CCOCC3)cc2c1O [Example 180, N-(4-Chlorobenzyl)-8-fluoro-4-hydroxy-6-(4-morpholinylcarbonyl)-3-quinolinecarboxamide] | 28.2
11 | CN(C)C(=O)c1cc(F)c2ncc(C(=O)NCc3ccc(Cl)cc3)c(O)c2c1 [Example 182, N^3-(4-Chlorobenzyl)-8-fluoro-4-hydroxy-N^6,N^6-dimethyl-3,6-quinolinedicarboxamide] | 5
12 | O=C(NCCc1ccc(O)cc1)c1cc(F)c2ncc(C(=O)NCc3ccc(Cl)cc3)c(O)c2c1 [Example 183, N^3-(4-Chlorobenzyl)-8-fluoro-4-hydroxy-N^6-(4-hydroxyphenethyl)-3,6-quinolinedicarboxamide] | 32
13 | O=C(NCc1ccc(Cl)cc1)c1cc(F)c2ncc(C(=O)NCc3ccc(Cl)cc3)c(O)c2c1 [Example 185, N^3,N^6 -Bis(4-chlorobenzyl)-8-fluoro-4-hydroxy-3,6-quinolinedicarboxamide] | 32.8
14 | COc1ccc(S(=O)(=O)Nc2cc(F)c3ncc(C(=O)NCc4ccc(Cl)cc4)c(O)c3c2)cc1 [Example 187, N-(4-Chlorobenzyl)-8-fluoro-4-hydroxy-6-{[(4-methoxyphenyl)-sulfonyl]amino}-3-quinolinecarboxamide] | 17.7
15 | O=C(NCc1ccc(Cl)cc1)c1cnc2c(F)cc(S(=O)(=O)NCc3cccc4ccccc34)cc2c1O [Example 192, N-(4-Chlorobenzyl)-8-fluoro-4-hydroxy-6-{[(1-naphthylmethyl)aminor]-sulfonyl}-3-quinolinecarboxamide] | 1.6
16 | O=C(NCc1ccc(Cl)cc1)c1cnc2c(F)cc(S(=O)(=O)NCCc3c[nH]c4ccccc34)cc2c1O [Example 193, N-(4-Chlorobenzyl)-8-fluoro-4-hydroxy-6-({[2-(1H-indol-3-yl)ethyl]-amino)sulfonyl)-3-quinolinecarboxamide] | 2.7
17 | O=C(NCc1ccc(Cl)cc1)c1cnc2c(F)cc(S(=O)(=O)NCc3ccco3)cc2c1O [Example 194, N-(4-Chlorobenzyl)-8-fluoro-6-{[(2-furylmethyl)amino]sulfonyl}-4-hydroxy-3-quinolinecarboxamide] | 15.3
18 | O=C(NCc1ccc(Cl)cc1)c1cnc2c(F)cc(S(=O)(=O)N(CCO)CCO)cc2c1O [Example 195, 6-{[Bis(2-hydroxyethyl)amino]sulfonyl}-N-(4-chlorobenzyl)-8-fluoro-4-hydroxy-3-quinolinecarboxamide] | 18.3
19 | CCOC(=O)CNS(=O)(=O)c1cc(F)c2ncc(C(=O)NCc3ccc(Cl)cc3)c(O)c2c1 [Example 196, Ethyl 2-{[(3-{[(4-chlorobenzyl)amino]carbonyl}-8-fluoro-4-hydroxy-6-quinolinyl)sulfonyl]amino) acetate] | 19.4
20 | O=C(NCc1ccc(Cl)cc1)c1cnc2c(F)cc(S(=O)(=O)N3CCOCC3)cc2c1O [Example 198, N-(4-Chlorobenzyl)-8-fluoro-4-hydroxy-6-(4-morpholinylsulfonyl)-3-quinolinecarboxamide] | 21
21 | O=C(NCc1ccc(Cl)cc1)c1cnc2c(F)cc(S(=O)(=O)NCc3ccccn3)cc2c1O [Example 199, N-(4-Chlorobenzyl)-8-fluoro-4-hydroxy-6-{[(2-pyridinylmethyl)amino]-sulfonyl}-3-quinolinecarboxamide] | 26.4

Next, values leading:

Row | IC50 [µM] | Structure (SMILES)
22 | 1.2 | CC(=O)CCc1cc(F)c2ncc(C(=O)NCc3ccc(Cl)cc3)c(O)c2c1 [Example 160, N-(4-Chlorobenzyl)-8-fluoro-4-hydroxy-6-(3-oxobutyl)-3-quinolinecarboxamide]
23 | 0.59 | O=C(NCc1ccc(Cl)cc1)c1cnc2ccc(COCCO)cc2c1O [Example 163, N-(4-Chlorobenzyl)-4-hydroxy-6-[(2-hydroxyethoxy)methyl]-3-quinolinecarboxamide]
24 | 2.3 | O=C(NCc1ccc(Cl)cc1)c1cnc2ccc(COC(CO)CO)cc2c1O [Example 164, N-(4-Chlorobenzyl)-4-hydroxy-6-{[2-hydroxy-1-(hydroxymethyl)ethoxy]methyl}-3-quinolinecarboxamide]
25 | 6.7 | COC(=O)c1ccc2ncc(C(=O)NCc3ccc(Cl)cc3)c(O)c2c1 [Example 165, Methyl 3-{[(4-chlorobenzyl)amino]carbonyl}-4-hydroxy-6-quinolinecarboxylate]
26 | 7 | O=C(NCc1ccc(Cl)cc1)c1cnc2ccc(CO)cc2c1O [Example 166, N-(4-Chlorobenzyl)-4-hydroxy-6-(hydroxymethyl)-3-quinolinecarboxamide]
27 | 5 | Cc1cc(Cl)cc2c(O)c(C(=O)NCc3ccc(Cl)cc3)cnc12 [Example 167, 6-Chloro-N-[(4-chlorophenyl)methyl]-4-hydroxy-8-methyl-3-quinolinecarboxamide]
28 | 3.7 | O=C(NCc1ccc(Cl)cc1)c1cnc2cc(F)c(F)cc2c1O [Example 169, N-[(4-Chlorophenyl)methyl]-6,7-difluoro-4-hydroxy-3-quinolinecarboxamide]
29 | 4.4 | CSc1cc(F)c2ncc(C(=O)NCc3ccc(Cl)cc3)c(O)c2c1 [Example 170, N-(4-Chlorobenzyl)-8-fluoro-4-hydroxy-6-(methylsulfanyl)-3-quinolinecarboxamide]
30 | 1.9 | O=C(NCc1ccc(Cl)cc1)c1cnc2c(F)cc(SCCO)cc2c1O [Example 171]
31 | 7.2 | O=C(NCc1ccc(Cl)cc1)c1cnc2c(F)cc([S+]([O-])CCO)cc2c1O (centres unmarked) [Example 177, N-(4-Chlorobenzyl)-8-fluoro-4-hydroxy-6-[(2-hydroxyethyl)sulfinyl]-3-quinolinecarboxamide]
32 | 39.2 | O=C(NCCO)c1cc(F)c2ncc(C(=O)NCc3ccc(Cl)cc3)c(O)c2c1 [Example 181, N^3-(4-Chlorobenzyl)-8-fluoro-4-hydroxy-N^6-(2-hydroxyethyl)-3,6-quinolinedicarboxamide]
33 | 30.4 | NC(=O)c1cc(F)c2ncc(C(=O)NCc3ccc(Cl)cc3)c(O)c2c1 [Example 184, N^3-(4-Chlorobenzyl)-8-fluoro-4-hydroxy-3,6-quinolinedicarboxamide]
34 | 13.8 | Nc1cc(F)c2ncc(C(=O)NCc3ccc(Cl)cc3)c(O)c2c1 [Example 186, 6-Amino-N-(4-chlorobenzyl)-8-fluoro-4-hydroxy-3-quinolinecarboxamide]
35 | 2.1 | O=C(NCc1ccc(Cl)cc1)c1cnc2ccc(NCCO)cc2c1O [Example 188, N-(4-Chlorobenzyl)-4-hydroxy-6-[(2-hydroxyethyl)amino]-3-quinolinecarboxamide]
36 | 19.4 | CCN(CCO)c1ccc2ncc(C(=O)NCc3ccc(Cl)cc3)c(O)c2c1 [Example 189, N-(4-Chlorobenzyl)-6-[ethyl(2-hydroxyethyl)amino]-4-hydroxy-3-quinolinecarboxamide]
37 | 2.7 | O=C(NCc1ccc(Cl)cc1)c1cnc2ccc(N3CCOC3=O)cc2c1O [Example 190, N-(4-Chlorobenzyl)-4-hydroxy-6-(2-oxo-1,3-oxazolidin-3-yl)-3-quinolinecarboxamide]
38 | 19.6 | O=C(NCc1ccc(Cl)cc1)c1cnc2c(F)cc(S(=O)(=O)NCCO)cc2c1O [Example 197, N-(4-Chlorobenzyl)-8-fluoro-4-hydroxy-6-{[(2-hydroxyethyl)amino]-sulfonyl}-3-quinolinecarboxamide]
